Data: patent publication US10918891B2, “Cosmetic treatment method for the skin” (SYNTIVIA, priority 2016, dated 2021)
Marks after values point to notes of the source that are not given here.

What was measured:
[1] = tested on: explants of human skin (NATIVESKIN, Genoskin); assay: γ-H2Ax immunofluorescence (DNA double-strand breaks) on human skin explants after repeated UVA irradiation; format: cell-based; conditions: skin explant, topical (Ia) 100 ppm in Carbopol, three UVA stresses 50 J/cm2
Procedure: In these examples, the protective properties of the compound (Ia) against the damage caused to the DNA and to the extracellular matrix by repeated UVA irradiation, are measured on explants of human skin (NATIVESKIN, Genoskin).
Upon reception of the explants, the latter are topically coated with Carbopol® (Lubrizol)+DMSO for the non-UVA control (CTL without stress) and for the control with stress by UVAs (CTL UVA), and with Carbopol®+compound (Ia) at 100 ppm for the test.
Over three days, the cells are subjected to three stresses with UVAs at a rate of 50 joules per square centimetre.
The first irradiation takes place 24 hours after the treatments. The products are present before, during and after the irradiation. The control without stress is wrapped in aluminium and also placed in the irradiator.
During the irradiation, the explants inserted are disposed in a petri dish with PBS. Fresh medium (Genoskin Culture medium) is added after the irradiation. […]
The sections are mounted on a slide, and observed using a microscope (Leica DM5000B). An absence of fluorescence is clearly observed for the sample treated with the compound (Ia) according to the invention, which corresponds to an absence of double-strand breaks of the DNA.
The fluorescence is quantified by means of the microscope.

[2] = tested on: TNFα; assay: Gene expression of TNFα by quantitative RT-PCR in NHEK; format: cell-based, human; conditions: (Ia) 3 ppm (10^−5M), 24 hours
Procedure: (§1) In these examples, the expression of the messenger RNA is measured by the technique of quantitative RT-PCR (reverse transcription followed by polymerase chain reaction), after incubation in vitro of the various cell types in the absence or in the presence of compound (Ia).
(§2) This study was carried out on normal human dermal Fibroblasts (NHDF) or normal human epidermal Keratinocytes (NHEK). The compound (Ia) is tested at 10^−5M in an aqueous solution with 0.1% dimethylsulfoxide.
(§3) The cells are cultured at the concentration of 10,000 cells per well of 96-well plates, in the presence of standard culture medium according to the cell type.
(§4) The compound (Ia) is then added at the concentration (3 ppm), for 24 hours.
(§5) The supernatant is eliminated and the cells are taken up in a specific buffer for the extraction of the messenger RNA (mRNA). The mRNA is purified and reverse transcribed in the presence of a commercial reverse transcriptase.
(§6) The complementary DNA (cDNA) obtained is quantified by RT-PCR, by means of suitable primers. The rate of expression of the mRNA is normalised with 5 reference genes.
(§7) The cells used for this example are normal human keratinocytes (NHEK).

[3] = tested on: NHDF cells; assay: Cellular viability (WST1) of NHDF exposed to cigarette extract; format: cell-based, human; conditions: (Ia) 10 ppm pretreatment 24 h and treatment 24 h; cigarette extract diluted 1/50; WST1, 450 nm; Control 1.618, Cigarette extract 1.357
Procedure: (§8) The cells used for this example are normal human Fibroblasts (NHDF) and normal human epidermal Keratinocytes (NHEK).
A cigarette extract is prepared using a laboratory device allowing the sucking up of cigarette smoke via a suction system, and the controlled bubbling of this cigarette smoke into the solution studied, which is then filtered on a 0.22 μm filter made of Polyether sulfone (PES).
The cells are cultured at the concentration of 7000 cells per well of 96-well plates (NHDF) or 8000 cells per well (NHEK), in the presence of standard culture medium for NHDF or NHEK (for 24 h 37° C., 5% CO2).
After pretreatment of the cells with the compound (Ia) at 10 ppm for 24 h the cells are treated with the cigarette extract diluted to 1/50th in the culture medium with or without the compound (Ia) at 10 ppm for 24 h. The absorbance is read a first time at […] (Multiskan®).
Then, 10 μl of WST1 (Roche) are introduced into the medium and the cells are incubated for 3 hours.
The absorbance at 450 nm is measured after the addition of WST1 (Multiskan®) and the results obtained, in terms of cellular viability, are shown in tables 11 and 12 below. The treated cells (Cigarette extract+(Ia)) are compared to the untreated cells (Control) or to the cells having only undergone exposure to the cigarette extract (Cigarette extract).

[4] = tested on: NHDF cells; assay: DNA double-strand breaks (γ-H2AX) induced by cigarette extract in NHDF; format: cell-based, human; conditions: (Ia) 10 ppm pretreatment 24 h and treatment 24 h, cigarette extract 1/50, Control 6441, Cigarette extract 11404
Procedure: as §8
The cells are cultured at the concentration of 3000 cells per well of 96-well plates in the presence of standard culture medium for NHDF or NHEK (for 24 hours, 37° C., 5% CO2).
After pretreatment of the cells with the compound (Ia) at 10 ppm for 24 hours, the cells are treated with the cigarette extract diluted to 1/50° with or without compound (Ia) at 10 ppm for 24 hours. […].
After washing, the samples are then placed in the presence of DAPI for 10 min in order to mark the nuclei, then rinsed once again. The marked proteins are observed and quantified with an automated fluorescence microscope (ArrayScan® (Cellomics®)). The cells treated by the compound (Ia) are then compared to the untreated cells or to the cells only exposed to the cigarette extract.

[5] = tested on: Sirtuin-6; assay: Gene expression of Sirtuin-6 by real-time quantitative PCR in NHDF; format: cell-based, human
Procedure: The cells used for this example are normal human Fibroblasts (NHDF) The cells are inoculated in 96-well plates at a concentration of 10000 cells per well.
The contact with the compound tested is carried out for 24 h. After the 24 h contact, the supernatant is eliminated and the cells are collected in a lysis solution in order to extract the mRNA. The mRNA is reverse transcribed into DNA then quantified by real-time quantitative PCR.

[6] = tested on: MMP-9; assay: Gene expression of MMP-9 by quantitative RT-PCR in NHEK; format: cell-based, human; conditions: (Ia) 3 ppm (10^−5M), 24 hours
Procedure: as §1, §2, §3, §4, §5, §6, §7

[7] = tested on: MMP-3; assay: Gene expression of MMP-3 by quantitative RT-PCR in NHEK; format: cell-based, human; conditions: (Ia) 3 ppm (10^−5M), 24 hours
Procedure: as §1, §2, §3, §4, §5, §6, §7

## Cc1ncc(CO)c(CNC(=O)/C=C/c2ccc(O)c(O)c2)c1O [Compound (Ia)]
[1]
  Cells positive for γ-H2Ax marking / total number of cells: 59/1282
[1]; CTL UVA 33.93%, CTL without stress 4.34%
  Cells positive for γ-H2Ax marking based on 100%: 4.76%
[2]
  Reduction of the gene expression compared to the basal level based on 100% (TNFα): −45%
[3]
  Cellular viability on NHDF (Optical density): 1.674 Optical density
[4]
  Double-strand breaks of the DNA for NHDF (AU): 8752*** AU
[5]; 24 h contact
  Gene expression of the sirtuin-6 compared to the basal level based on 100%: 166%
[5]; see Example 13
  stimulation of the expression of the gene of the Sirtuin-6 with respect to the untreated control: 66%
[6]
  Reduction of the gene expression compared to the basal level based on 100% (MMP-9): −75%
[7]
  Reduction of the gene expression compared to the basal level based on 100% (MMP-3): −50%
